Experiments:
DU145 cells = assay: Spheroid formation assay, DU145 cells; type: cell-based
Description: (§1) 5.1.7 Spheroid formation assay—Spheroid formation assay was performed with a protocol modified from previous study (Folkins C, p3560). Briefly, cells were first trypsinized, washed with 1× PBS and resuspended in DMEM F12 medium. Two hundred cells were added into each well of a 24-well-plate pre-coated with polyHEMA (Sigma, St. Louis, Mo.). Cells will be grown in DMEM/F12 mem (Invitrogen, Carlsbad, Calif.) supplemented with 4 μg/mL insulin (Sigma, St. Louis, Mo.), B27 (Invitrogen, Carlsbad, Calif.), 20 ng/mL EGF (Sigma, St. Louis, Mo.), and 20 ng/mL basic FGF (Invitrogen, Carlsbad, Calif.). Fresh medium with the above supplements was added every day. γ-T3 was added at indicated time points and the number of spheroids was counted at day 14 of the assay or at the end of the treatment. Each experiment was repeated in triplicates and each data point represented the mean and standard derivation.

DU145 prostaspheres = assay: Treatment of pre-formed CSC-enriched DU145 prostaspheres; type: cell-based; settings: 48 hrs
Description: (A) CSC enriched prostaspheres were formed by maintaining DU145 cells in non-adherent culture supplemented with serum replacement medium for 14 days. The prostaspheres were then treated with either vehicle, γ-T3 (10, 20 μg/ml) or Docetaxel (Doc, 40 ng/ml) for 48 hrs. Spheroids were counted under microscope before and after treatment. Results were presented as mean % change in spheroid number to control±s.d. Note that spheroids were highly sensitive to γ-T3 treatment but resistant to high dose of Docetaxel. (B) Images of prostaspheres after 48 hrs treatment with vehicle, 40 ng/ml of Docetaxel and 10 μg/ml of γ-T3.
as §1

## CC(C)=CCC/C(C)=C/CC/C(C)=C/CCC1(C)CCc2cc(O)c(C)c(C)c2O1 (stereo not drawn) [γ-T3, 7,8-dimethyltocotrienol]
DU145 cells
  spheroid formation ability: almost completely suppressed
DU145 prostaspheres; 10 μg/ml
  decrease of spheroid number: 70%
DU145 prostaspheres; 20 μg/ml
  decrease of spheroid number: 76%

— patent US20110195910A1, “USE OF TOCOTRIENOL COMPOSITION FOR THE PREVENTION OF CANCER” (DAVOS LIFE SCIENCE PTE. LTD., priority 2008, published 2011)
